Earlier results as cited in patent US10925895B2, “Composition and method of using medicament for treatment of cancers and tumors” (priority 2014, dated 2021).
Where two headings read alike, the source gives them in different places.

| Compound | effectiveness against Enterococcus faecalis (Enterococcus faelicalis) | effectiveness as tissue dissolving agent (organic tissue; 5.25% for 40 minutes) | effectiveness as tissue dissolving agent (organic tissue; at 1.3-2.5%) |
| --- | --- | --- | --- |
| OCl [Sodium hypochlorite, sodium hypochlorite] | not effective | highly effective | ineffective |
| [Ca+2].[OH-].[OH-] [Calcium hydroxide, calcium hydroxide] | ineffective |  |  |
